Data published in ChEMBL document CHEMBL5120946, “Bivalent BET Bromodomain Inhibitors Confer Increased Potency and Selectivity for BRDT via Protein Conformational Plasticity” (J Med Chem, 2022).

Legend:
[1] = target: T1, Bromodomain testis-specific protein (Homo sapiens, UniProt Q58F21); assay: Inhibition of recombinant human BRDT-1 (21 to 137 residues) expressed in bacterial expression system by bromoscan assay
[2] = target: T1, Bromodomain testis-specific protein; assay: Inhibition of recombinant human BRDT-2 (250 to 382 residues) expressed in bacterial expression system by bromoscan assay
[3] = target: T2, Bromodomain-containing protein 4 (Homo sapiens, UniProt O60885); assay: Binding affinity to BRD4-T (unknown origin)
MM1.S = assay: Growth inhibition of human MM1.S cells incubated for 72 hrs by CellTiter-Blue assay; assay type: functional, cell-based
[4] = target: T2, Bromodomain-containing protein 4; assay: Inhibition of recombinant human BRD4-2 (333 to 460 residues) expressed in bacterial expression system by bromoscan assay
[5] = target: T1, Bromodomain testis-specific protein; assay: Binding affinity to N-terminal hexa-histidine tagged BRDT-T (2 to 416 residues) (unknown origin) expressed in Escherichia coli BL21(DE3) cells
[6] = Metabolic stability in pooled human liver microsomes assessed as half life; assay type: ADME, Microsome; conditions: for t1/2: microsomes; for half-life: pooled human liver microsomes
[7] = Metabolic stability in pooled mouse liver microsomes assessed as half life; assay type: ADME, Microsome; conditions: for t1/2: microsomes; for half-life: pooled mouse liver microsomes
[8] = target: T2, Bromodomain-containing protein 4; assay: Inhibition of recombinant human BRD4-1 (44 to 168 residues) expressed in bacterial expression system by bromoscan assay
[9] = Permeability in MDCK-MDR1 cells; assay type: ADME, cell-based, Canis lupus familiaris; conditions: dog; for Papp: MDCK-MDR1, read-out: permeability
Homo sapiens = species on record: Homo sapiens; assay: Selectivity ratio of Kd for BRD4 (unknown origin) to Kd for BRDT (unknown origin)
[10] = target: T2, Bromodomain-containing protein 4; assay: Inhibition of BRD4 in human MM1.S cells assessed as reduction in c-MYC level after 6 hrs by Western blot analysis; assay type: cell-based

Kd [1]	Kd [2]	Kd [3]	IC50 (MM1.S)	Kd [4]	Kd [5]	Kd [8]	half-life [6]	Papp [9]	half-life [7]	Selectivity ratio (Homo sapiens)	permeability ([9]; mdck-mdr1)	IC50 [10]	Structure (SMILES)	t1/2 [6]	t1/2 [7]
9.5 nM	25 nM	6.7 nM	61 nM	20 nM	18 nM								Cc1cnc(Nc2ccc(C(=O)NC3CCN(C)CC3)c(F)c2)nc1Nc1ccc(Cl)c(NS(=O)(=O)C(C)(C)C)c1		
0.6 nM	8.4 nM	4.8 nM	59 nM	9.1 nM	2.6 nM	28 nM							Cc1cnc(Nc2ccc(C(=O)NC3CCN(C(=O)COCCOCCOCC(=O)N4CCC(NC(=O)c5ccc(Nc6ncc(C)c(Nc7ccc(Cl)c(NS(=O)(=O)C(C)(C)C)c7)n6)cc5F)CC4)CC3)c(F)c2)nc1Nc1ccc(Cl)c(NS(=O)(=O)C(C)(C)C)c1		
0.84 nM	3.5 nM	3.6 nM	44 nM	3.1 nM	0.59 nM	4 nM							Cc1cnc(Nc2ccc(C(=O)NC3CCN(C(=O)COCCOCC(=O)N4CCC(NC(=O)c5ccc(Nc6ncc(C)c(Nc7ccc(Cl)c(NS(=O)(=O)C(C)(C)C)c7)n6)cc5F)CC4)CC3)c(F)c2)nc1Nc1ccc(Cl)c(NS(=O)(=O)C(C)(C)C)c1		
77 nM							< 2.3 min	0.13 ×10⁻⁶ cm/s	< 2.3 min				CCS(=O)(=O)Nc1cccc(-c2cn(C)c(=O)c3ccccc23)c1		
0.089 nM	5.5 nM	0.29 nM		0.32 nM	0.058 nM	0.095 nM	315 min	15 ×10⁻⁶ cm/s	11 min				CCS(=O)(=O)Nc1ccc(OCCOCCOCCOCCOc2ccc(NS(=O)(=O)CC)cc2-c2cn(C)c(=O)c3ccccc23)c(-c2cn(C)c(=O)c3ccccc23)c1		
0.16 nM	3.1 nM	1.7 nM	1100 nM	3.2 nM	1.3 nM	6 nM	2.2 min			12			Cc1cnc(Nc2ccc(C(=O)NC3CCNCC3)c(F)c2)nc1Nc1cc(NS(=O)(=O)C(C)(C)C)cc(C(=O)NCCOCCOCCOCCC(=O)N2CCC(NC(=O)c3ccc(Nc4ncc(C)c(Nc5ccc(Cl)c(NS(=O)(=O)C(C)(C)C)c5)n4)cc3F)CC2)c1		55 min
5 nM	12 nM	2.3 nM	8.5 nM	3.7 nM	6 nM	3.6 nM					2.7 10^-6 cm/s		CCS(=O)(=O)Nc1ccc(Oc2ccc(Cl)cc2)c(-c2cn(C)c(=O)c3ccccc23)c1	299 min	74 min
875 nM			58 nM			335 nM						> 1000 nM	Cn1cc(-c2cccc(N3CCCC3=O)c2)c2ccccc2c1=O		

Structure (SMILES)	Kd [1]	Kd [2]	Kd [3]	IC50 (MM1.S)	Kd [4]	Kd [5]	Kd [8]	half-life [6]	Papp [9]	half-life [7]	Selectivity ratio (Homo sapiens)	permeability ([9]; mdck-mdr1)	IC50 [10]	t1/2 [6]	t1/2 [7]
Cc1cnc(Nc2ccc(C(=O)NC3CCN(C(=O)CCOCCOCCOCCOCCC(=O)N4CCC(NC(=O)c5ccc(Nc6ncc(C)c(Nc7ccc(Cl)c(NS(=O)(=O)C(C)(C)C)c7)n6)cc5F)CC4)CC3)c(F)c2)nc1Nc1ccc(Cl)c(NS(=O)(=O)C(C)(C)C)c1	0.92 nM	1.7 nM	2.8 nM	34 nM	3 nM	1.55 nM	6.4 nM							5.6 min	4.1 min
Cc1cnc(Nc2ccc(C(=O)NC3CCN(C(=O)CCOCCOCCOCCOCCOCCC(=O)N4CCC(NC(=O)c5ccc(Nc6ncc(C)c(Nc7ccc(Cl)c(NS(=O)(=O)C(C)(C)C)c7)n6)cc5F)CC4)CC3)c(F)c2)nc1Nc1ccc(Cl)c(NS(=O)(=O)C(C)(C)C)c1	0.6 nM	2.2 nM	1.6 nM	30 nM	1.5 nM	0.8 nM	4.6 nM							10 min	30 min
